In patent US9428465B2, “Acid ceramidase inhibitors and their use as medicaments” (FONDAZIONE ISTITUTO ITALIANO DI TECHNOLOGIA, priority 2012, dated 2016):
pIC50: −log10 of the molar value.

Target: human acid ceramidase (hAC) (Homo sapiens (Human), UniProt Q13510)
Assay: Human acid ceramidase (hAC) activity assay, UPLC/MS of lauric acid
Format: biochemical
Conditions: human acid ceramidase, 50 μM N-lauroyl ceramide, pH 4.5
Method: Human acid ceramidase (hAC) cDNA was purchased from Open Biosystem (clone ID 3923451) and subcloned in the mammalian expression vector pCDNA3.1, containing the neomycin resistance gene. The cell line HEK293 was transfected with hAC-pCDNA3.1 construct using JetPEI reagent (Polypus Transfection™, Illkirch, FR) following the manufacturer instructions. A stable cell line of hAC-overexpressing HEK293 was generated by selection with G418 (1 mg/ml) and cell clones were derived by limited dilution plating. hAC-expressing clones were analyzed by western blot.
Hek293 cells overexpressing hAC were suspended in 20 mM Tris HCl (pH 7.5) containing 0.32M sucrose, sonicated and centrifuged at 800×g for 15 min at 4° C. The supernatants were centrifuged again at 12,000×g for 30 min at 4° C. The pellets were suspended in phosphate-buffered saline (PBS) and subjected to 2 freeze-thaw cycles at −80° C. The suspensions were centrifuged at 105,000×g for 1 h at 4° C. The supernatants containing hAC were kept at −80° C. until use. Protein concentration was measured using the bicinchoninic acid (BCA) assay (Pierce).
A hAC protein preparation (10 μg) was preincubated with inhibitors (final DMSO concentration 1%) in assay buffer (100 mM sodium phosphate, 0.1% Nonidet P-40, 150 mM NaCl, 3 mM DTT, 100 mM sodium citrate, pH 4.5) for 30 min at 37° C. Reactions were started by the addition of 50 μM N-lauroyl ceramide (Nu-Chek Prep, Elysian, Minn.) and carried on for 30 min at 37° C. Reactions were stopped by addition of a mixture of chloroform/methanol (2:1, vol/vol) containing 1 nmol 11-lauroleic acid (NuChek Prep). The organic phases were collected, dried under nitrogen and analyzed by UPLC/MS (Acquity, Waters) in the negative-ion mode monitoring the reaction product (lauric acid, m/z=199) using 11-lauroleic acid as internal standard.
Lipids were eluted on an Acquity UPLC BEH C18 column (50 mm length, 2.1 mm i.d., 1.7 μm pore size, Waters) column at 0.5 mL-min^−1 for 1.5 min with a gradient of acetonitrile (CH3CN) and water, both containing 0.25% acetic acid and 5 mM ammonium acetate (70% to 100% CH3CN in 0.5 min, 100% CH3CN for 0.5 min, 70% CH3CN for 0.4 min). The column temperature was 40° C. Electrospray ionization (ESI) was in the negative mode, capillary voltage was 1 kV and cone voltage was 50 V. Nitrogen was used as drying gas at a flow rate of 500 L/h and at a temperature of 400° C.
The [M-H]^− ion was monitored in the selected-ion monitoring mode (m/z values: lauric acid 199, 11-lauroleic acid […]). Calibration curves were generated with authentic lauric acid (Nu Check Prep). Inhibition of acid ceramidase activity was calculated as reduction of lauric acid in the samples compared to vehicle controls. IC50 values were calculated by non-linear regression analysis of log [concentration]/inhibition curves using GraphPad Prism 5 (GraphPad Software Inc., CA, USA) applying a standard slope curve fitting.

Sequence of human acid ceramidase (hAC) (Q13510 143-395): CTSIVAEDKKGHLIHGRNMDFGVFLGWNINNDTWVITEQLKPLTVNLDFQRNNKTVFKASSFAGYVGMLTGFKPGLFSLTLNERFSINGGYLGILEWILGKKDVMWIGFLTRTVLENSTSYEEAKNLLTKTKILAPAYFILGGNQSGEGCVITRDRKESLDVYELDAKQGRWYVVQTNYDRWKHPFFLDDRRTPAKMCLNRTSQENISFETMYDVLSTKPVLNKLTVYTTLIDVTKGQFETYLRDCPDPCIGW
Sequence of human acid ceramidase (hAC) (Q13510 22-142): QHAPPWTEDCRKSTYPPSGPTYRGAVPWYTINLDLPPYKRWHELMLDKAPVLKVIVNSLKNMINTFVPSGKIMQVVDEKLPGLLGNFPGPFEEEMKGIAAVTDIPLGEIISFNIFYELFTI

pIC50: 7.46
Compound: CCCCCCNC(=O)n1cc(Br)c(=O)[nH]c1=O [Example 5, 5-bromo-N-hexyl-2,4-dioxo-pyrimidine-1-carboxamide]
